In publication PMC9721423, “Novel benzo chromene derivatives: design, synthesis, molecular docking, cell cycle arrest, and apoptosis induction in human acute myeloid leukemia HL-60 cells” (Journal of Enzyme Inhibition and Medicinal Chemistry, 2022):
Where two headings read alike, the source gives them in different places.

Key:
Assay in all cases: cells
Parameters in all cases: species or system NCI-60 human tumour cell lines; NCI-60 five-dose growth inhibition screen, sulforhodamine B protein stain
[1] = test system: SK-MEL-28; conditions: Homo sapiens, SK-MEL-28, 48 h
Method: (§1) All the newly synthesised 28 compounds were selected for single-dose testing. NCI60 single-dose testing is performed in all 60 cell lines according to the reported assay (National Cancer Institute, https://dtp.cancer.gov/) (National Cancer Institute https://dtp.cancer.gov/discovery_development/nci-60/), compounds were dissolved in DMSO: glycerol […] and are stored in a −70 °C freezer. The prepared compounds were added at single concentration of 1 0^−5 M and the culture was incubated for 48 h. End point determinations were made with a protein binding dye, sulforhodamine B (SRB). The human tumour cell lines were derived from nine different cancer types: leukaemia, melanoma, lung, colon, central nervous system (CNS), ovarian, renal, prostate, and breast cancers. Dose–response curves for these compounds were created by plotting the percentage growth (PGs or % growth) against log10 of the corresponding concentration for every cell line. Three response parameters, GI50 (Median Growth Inhibitory Concentration), TGI (Total Growth Inhibitory Concentration), and LC50 (Median Lethal Concentration) were calculated[54] (National Cancer Institute, https://dtp.cancer.gov/discovery_development/nci-60/) (National Cancer Institute, https://dtp.cancer.gov/)[55] for compounds 5a and 6a. […] Furthermore, the average sensitivity of all cell lines towards the compound is termed as the full panel mean graph midpoints (MG-MID). The ratio obtained by dividing the full panel mean graph midpoints (MG-MID) concentration by the individual subpanel MG-MID concentrations (obtained as the average sensitivity of all cell lines of a particular subpanel towards the test compound) is considered a criterion for the compound selectivity towards the corresponding cell line. Ratios greater than 6 indicate high selectivity while ratios between 3 and 6 refer to moderate selectivity whereas compounds not meeting either of these criteria were rated non-selective[56].

[2] = test system: NCI-H23; conditions: Homo sapiens, NCI-H23, 48 h
Method: as §1

[3] = test system: NCI-H322M; conditions: Homo sapiens, NCI-H322M, 48 h
Method: as §1

[4] = test system: U251; conditions: Homo sapiens, U-251, 48 h
Method: as §1

[5] = test system: RXF 393; conditions: Homo sapiens, RXF 393, 48 h
Method: as §1

[6] = test system: SF-295; conditions: Homo sapiens, SF-295, 48 h
Method: as §1

[7] = test system: SF-268; conditions: Homo sapiens, SF-268, 48 h
Method: as §1

[8] = test system: A498; conditions: Homo sapiens, A498, 48 h
Method: as §1

[9] = test system: SNB-75; conditions: Homo sapiens, SNB-75, 48 h
Method: as §1

[10] = test system: OVCAR-8; conditions: Homo sapiens, OVCAR-8, 48 h
Method: as §1

[11] = test system: SK-OV-3; conditions: Homo sapiens, SK-OV-3, 48 h
Method: as §1

[12] = test system: MDA-MB-231/ATCC; conditions: Homo sapiens, MDA-MB-231, 48 h
Method: as §1

[13] = test system: MCF7; conditions: Homo sapiens, MCF7, 48 h
Method: as §1

[14] = test system: DU-145; conditions: Homo sapiens, DU-145, 48 h
Method: as §1

[15] = test system: SK-MEL-5; conditions: Homo sapiens, SK-MEL-5, 48 h
Method: as §1

[16] = test system: COLO 205; conditions: Homo sapiens, COLO 205, 48 h
Method: as §1

[17] = test system: MALME-3M; conditions: Homo sapiens, Malme-3M, 48 h
Method: as §1

N=C(NO)C1=C(N)Oc2c(ccc3ccccc23)C1c1ccccc1 (stereo not shown) [5a, 2-Amino-4-phenyl-N-hydroxy-4H-benzo[h]chromene-3-carboxamidine]
GI50 ([1]; read-out: GI50 5a): 11800 nM | GI50 ([2]; read-out: GI50 5a): 470 nM | GI50 ([3]; read-out: GI50 5a): 660 nM | GI50 ([4]; read-out: GI50 5a): 380 nM | GI50 ([5]; read-out: GI50 5a): 200 nM | GI50 ([6]; read-out: GI50 5a): 300 nM | GI50 ([7]; read-out: GI50 5a): 1320 nM | GI50 ([8]; read-out: GI50 5a): 110 nM | GI50 ([9]; read-out: GI50 5a): 80 nM | GI50 ([10]; read-out: GI50 5a): 400 nM | GI50 ([11]; read-out: GI50 5a): 620 nM | GI50 ([12]; read-out: GI50 5a): 630 nM | GI50 ([13]; read-out: GI50 5a): 210 nM | GI50 ([14]; read-out: GI50 5a): 460 nM | GI50 [15]: 320 nM | GI50 ([16]; read-out: GI50 5a): 460 nM | GI50 ([17]; read-out: GI50 5a): 15600 nM

CC(=O)NC1=C(C#N)C(c2ccccc2)c2ccc3ccccc3c2O1 (stereo not shown) [6a, N-(3-Cyano-4-phenyl-4H-benzo[h]chromen-2-yl)acetamide]
GI50 ([1]; read-out: GI50 6a): 860 nM | GI50 ([2]; read-out: GI50 6a): 730 nM | GI50 ([3]; read-out: GI50 6a): 820 nM | GI50 ([4]; read-out: GI50 6a): 490 nM | GI50 ([5]; read-out: GI50 6a): 270 nM | GI50 ([6]; read-out: GI50 6a): 330 nM | GI50 ([7]; read-out: GI50 6a): 930 nM | GI50 ([8]; read-out: GI50 6a): 200 nM | GI50 ([9]; read-out: GI50 6a): 240 nM | GI50 ([10]; read-out: GI50 6a): 630 nM | GI50 ([11]; read-out: GI50 6a): 490 nM | GI50 ([12]; read-out: GI50 6a): 1250 nM | GI50 ([13]; read-out: GI50 6a): 470 nM | GI50 ([14]; read-out: GI50 6a): 730 nM | GI50 ([15]; read-out: GI50 6a): 360 nM | GI50 ([16]; read-out: GI50 6a): 610 nM | GI50 ([17]; read-out: GI50 6a): 670 nM
